Experimental data as given in ChEMBL document CHEMBL5104103 (J Med Chem, 2022).
pIC50: −log10 of the molar value. In brackets after ≈: the same amount, converted by molar mass.

What was measured:
[1] = biological target: T1, Tyrosine-protein kinase TXK (Homo sapiens, UniProt P42681); test: Inhibition of RLK (unknown origin) using peptide substrate in presence of ATP by caliper electrophoresis method
T1 sequence (P42681 whole entry): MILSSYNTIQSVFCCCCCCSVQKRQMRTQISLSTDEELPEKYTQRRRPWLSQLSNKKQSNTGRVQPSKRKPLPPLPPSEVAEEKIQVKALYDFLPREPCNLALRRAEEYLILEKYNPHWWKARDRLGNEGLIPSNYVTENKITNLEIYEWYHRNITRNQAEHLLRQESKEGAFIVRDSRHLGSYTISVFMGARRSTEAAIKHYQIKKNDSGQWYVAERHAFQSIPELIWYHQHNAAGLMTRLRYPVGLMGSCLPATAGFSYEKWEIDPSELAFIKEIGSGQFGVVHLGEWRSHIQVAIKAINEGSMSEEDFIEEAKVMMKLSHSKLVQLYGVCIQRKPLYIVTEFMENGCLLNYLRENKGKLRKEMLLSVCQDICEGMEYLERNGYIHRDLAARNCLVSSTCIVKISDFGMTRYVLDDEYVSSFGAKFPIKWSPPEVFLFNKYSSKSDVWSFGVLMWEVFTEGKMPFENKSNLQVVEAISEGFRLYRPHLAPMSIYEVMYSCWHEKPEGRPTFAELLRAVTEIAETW

[2] = Oral bioavailability in rat at 20 mg/kg; format: ADME, organism-based; conditions: in vivo
[3] = biological target: T2, Cytoplasmic tyrosine-protein kinase BMX (Homo sapiens, UniProt P51813); test: Inhibition of BMX (unknown origin) using peptide substrate in presence of ATP by caliper electrophoresis method
T2 sequence (P51813 whole entry): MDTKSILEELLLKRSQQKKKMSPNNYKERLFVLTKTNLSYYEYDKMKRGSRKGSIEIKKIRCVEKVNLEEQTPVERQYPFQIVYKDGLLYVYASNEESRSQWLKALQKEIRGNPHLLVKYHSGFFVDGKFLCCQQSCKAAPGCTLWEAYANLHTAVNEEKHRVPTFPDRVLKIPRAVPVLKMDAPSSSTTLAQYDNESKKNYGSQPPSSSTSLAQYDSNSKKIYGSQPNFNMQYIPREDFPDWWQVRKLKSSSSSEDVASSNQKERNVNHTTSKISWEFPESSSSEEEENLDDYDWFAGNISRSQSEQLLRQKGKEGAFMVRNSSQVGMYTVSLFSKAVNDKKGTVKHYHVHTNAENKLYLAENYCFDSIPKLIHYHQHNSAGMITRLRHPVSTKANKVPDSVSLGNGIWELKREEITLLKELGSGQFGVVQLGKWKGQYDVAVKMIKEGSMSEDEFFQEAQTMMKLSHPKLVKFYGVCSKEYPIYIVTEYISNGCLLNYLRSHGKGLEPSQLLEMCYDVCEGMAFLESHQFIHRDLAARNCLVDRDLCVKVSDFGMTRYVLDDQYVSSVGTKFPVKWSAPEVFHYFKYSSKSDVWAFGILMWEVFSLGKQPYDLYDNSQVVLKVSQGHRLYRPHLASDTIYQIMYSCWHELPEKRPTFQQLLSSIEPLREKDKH

[4] = biological target: Tyrosine-protein kinase Blk (Homo sapiens, UniProt P51451); test: Inhibition of BLK (unknown origin) using peptide substrate in presence of ATP by caliper electrophoresis method
[5] = Permeability across basolateral to apical membrane in human Caco-2 cells; format: ADME, cell-based; conditions: read-out: permeability
[6] = biological target: Epidermal growth factor receptor (Homo sapiens, UniProt P00533); test: Inhibition of EGFR (unknown origin) using peptide substrate in presence of ATP by caliper electrophoresis method
[7] = Solubility of compound in PBS at pH 7 by LCMS/MS analysis; format: physicochemical
[8] = Clearance in human liver S9 fraction assessed as measuring per mg protein by LCMS/MS analysis; format: ADME, subcellular; conditions: read-out: CLH
[9] = Inhibition of anti-IgM-stimulated CD20+ B cell activation in human whole blood assessed as measuring CD69 expression level pretreated for 1 hr followed by anti-IgM stimulation measured after 18 hrs by flow cytometry
[10] = biological target: Receptor tyrosine-protein kinase erbB-2 (Homo sapiens, UniProt P04626); test: Inhibition of ERBB2 (unknown origin) using peptide substrate in presence of ATP by caliper electrophoresis method
[11] = biological target: T3, Tyrosine-protein kinase JAK3 (Homo sapiens, UniProt P52333); test: Inhibition of JAK3 (unknown origin) using peptide substrate in presence of ATP by caliper electrophoresis method
T3 sequence (P52333 whole entry): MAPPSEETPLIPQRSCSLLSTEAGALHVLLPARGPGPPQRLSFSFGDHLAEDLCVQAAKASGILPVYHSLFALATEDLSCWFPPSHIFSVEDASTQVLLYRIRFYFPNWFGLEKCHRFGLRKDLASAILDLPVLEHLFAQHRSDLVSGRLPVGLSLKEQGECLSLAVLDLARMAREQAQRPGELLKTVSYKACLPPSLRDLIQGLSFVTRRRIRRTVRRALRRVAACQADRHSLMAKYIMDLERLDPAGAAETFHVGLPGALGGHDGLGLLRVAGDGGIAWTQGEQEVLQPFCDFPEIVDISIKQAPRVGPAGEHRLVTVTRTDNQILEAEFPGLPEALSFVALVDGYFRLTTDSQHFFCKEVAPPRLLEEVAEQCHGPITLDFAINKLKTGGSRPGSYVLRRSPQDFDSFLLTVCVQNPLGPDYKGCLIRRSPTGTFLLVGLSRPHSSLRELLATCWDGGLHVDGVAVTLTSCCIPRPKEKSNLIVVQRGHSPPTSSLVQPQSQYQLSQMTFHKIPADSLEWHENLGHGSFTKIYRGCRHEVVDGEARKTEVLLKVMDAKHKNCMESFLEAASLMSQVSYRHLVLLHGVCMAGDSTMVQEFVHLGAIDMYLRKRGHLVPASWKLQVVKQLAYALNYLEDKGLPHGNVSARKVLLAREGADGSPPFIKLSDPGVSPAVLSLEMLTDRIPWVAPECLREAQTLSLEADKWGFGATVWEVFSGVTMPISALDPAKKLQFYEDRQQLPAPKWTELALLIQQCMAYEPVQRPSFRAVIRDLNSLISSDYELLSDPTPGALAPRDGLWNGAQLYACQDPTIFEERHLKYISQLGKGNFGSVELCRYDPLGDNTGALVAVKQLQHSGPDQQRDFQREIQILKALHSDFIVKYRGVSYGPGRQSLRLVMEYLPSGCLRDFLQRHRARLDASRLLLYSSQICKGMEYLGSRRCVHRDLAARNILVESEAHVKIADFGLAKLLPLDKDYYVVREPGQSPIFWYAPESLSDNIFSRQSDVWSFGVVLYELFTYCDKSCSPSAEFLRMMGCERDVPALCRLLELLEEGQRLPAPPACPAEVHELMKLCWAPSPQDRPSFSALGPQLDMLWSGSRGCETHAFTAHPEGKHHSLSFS

Epidermal growth factor receptor, sequence (P00533 whole entry): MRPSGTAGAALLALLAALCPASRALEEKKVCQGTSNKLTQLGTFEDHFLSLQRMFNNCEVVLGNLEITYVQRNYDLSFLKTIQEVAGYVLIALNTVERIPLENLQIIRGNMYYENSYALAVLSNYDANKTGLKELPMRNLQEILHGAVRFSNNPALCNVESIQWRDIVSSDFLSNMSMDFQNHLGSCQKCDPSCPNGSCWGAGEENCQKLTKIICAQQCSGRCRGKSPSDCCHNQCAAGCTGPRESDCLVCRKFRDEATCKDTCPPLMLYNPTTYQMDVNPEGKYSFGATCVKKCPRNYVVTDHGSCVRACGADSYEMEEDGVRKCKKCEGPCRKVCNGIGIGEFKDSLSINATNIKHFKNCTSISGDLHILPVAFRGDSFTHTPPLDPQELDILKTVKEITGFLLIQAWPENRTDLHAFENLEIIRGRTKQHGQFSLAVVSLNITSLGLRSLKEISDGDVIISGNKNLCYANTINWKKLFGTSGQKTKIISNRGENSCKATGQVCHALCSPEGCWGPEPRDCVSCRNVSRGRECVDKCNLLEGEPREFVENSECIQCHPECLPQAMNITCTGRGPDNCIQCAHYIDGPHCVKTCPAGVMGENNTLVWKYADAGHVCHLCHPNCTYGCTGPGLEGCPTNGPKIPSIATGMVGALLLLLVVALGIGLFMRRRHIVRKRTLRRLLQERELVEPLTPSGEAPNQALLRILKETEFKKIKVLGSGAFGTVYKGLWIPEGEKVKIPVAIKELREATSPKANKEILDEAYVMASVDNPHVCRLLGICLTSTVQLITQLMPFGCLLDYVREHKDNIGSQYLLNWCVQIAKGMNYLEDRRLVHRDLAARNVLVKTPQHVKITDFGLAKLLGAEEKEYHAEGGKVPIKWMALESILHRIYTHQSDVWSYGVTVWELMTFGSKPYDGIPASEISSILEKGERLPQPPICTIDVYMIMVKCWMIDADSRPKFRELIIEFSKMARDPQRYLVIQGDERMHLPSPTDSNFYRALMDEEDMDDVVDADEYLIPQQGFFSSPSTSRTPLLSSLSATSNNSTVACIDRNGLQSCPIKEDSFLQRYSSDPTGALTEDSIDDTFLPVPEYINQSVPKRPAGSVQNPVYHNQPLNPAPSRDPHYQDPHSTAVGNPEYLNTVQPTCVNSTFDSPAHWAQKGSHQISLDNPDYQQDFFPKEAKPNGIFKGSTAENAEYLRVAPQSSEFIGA
Tyrosine-protein kinase Blk, sequence (P51451 whole entry): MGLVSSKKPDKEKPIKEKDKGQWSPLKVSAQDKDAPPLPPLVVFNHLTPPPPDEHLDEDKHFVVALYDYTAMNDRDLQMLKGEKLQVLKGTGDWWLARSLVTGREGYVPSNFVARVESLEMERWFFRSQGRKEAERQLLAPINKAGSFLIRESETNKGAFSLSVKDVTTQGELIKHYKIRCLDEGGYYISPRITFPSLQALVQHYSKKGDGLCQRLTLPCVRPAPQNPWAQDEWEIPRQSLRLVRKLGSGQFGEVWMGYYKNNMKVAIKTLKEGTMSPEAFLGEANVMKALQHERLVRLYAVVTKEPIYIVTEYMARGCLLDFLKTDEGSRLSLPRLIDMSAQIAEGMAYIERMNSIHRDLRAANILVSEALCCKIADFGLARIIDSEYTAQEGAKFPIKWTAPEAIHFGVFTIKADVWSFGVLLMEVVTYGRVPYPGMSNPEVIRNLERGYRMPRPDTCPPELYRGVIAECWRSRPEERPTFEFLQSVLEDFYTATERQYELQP
Receptor tyrosine-protein kinase erbB-2, sequence (P04626 whole entry): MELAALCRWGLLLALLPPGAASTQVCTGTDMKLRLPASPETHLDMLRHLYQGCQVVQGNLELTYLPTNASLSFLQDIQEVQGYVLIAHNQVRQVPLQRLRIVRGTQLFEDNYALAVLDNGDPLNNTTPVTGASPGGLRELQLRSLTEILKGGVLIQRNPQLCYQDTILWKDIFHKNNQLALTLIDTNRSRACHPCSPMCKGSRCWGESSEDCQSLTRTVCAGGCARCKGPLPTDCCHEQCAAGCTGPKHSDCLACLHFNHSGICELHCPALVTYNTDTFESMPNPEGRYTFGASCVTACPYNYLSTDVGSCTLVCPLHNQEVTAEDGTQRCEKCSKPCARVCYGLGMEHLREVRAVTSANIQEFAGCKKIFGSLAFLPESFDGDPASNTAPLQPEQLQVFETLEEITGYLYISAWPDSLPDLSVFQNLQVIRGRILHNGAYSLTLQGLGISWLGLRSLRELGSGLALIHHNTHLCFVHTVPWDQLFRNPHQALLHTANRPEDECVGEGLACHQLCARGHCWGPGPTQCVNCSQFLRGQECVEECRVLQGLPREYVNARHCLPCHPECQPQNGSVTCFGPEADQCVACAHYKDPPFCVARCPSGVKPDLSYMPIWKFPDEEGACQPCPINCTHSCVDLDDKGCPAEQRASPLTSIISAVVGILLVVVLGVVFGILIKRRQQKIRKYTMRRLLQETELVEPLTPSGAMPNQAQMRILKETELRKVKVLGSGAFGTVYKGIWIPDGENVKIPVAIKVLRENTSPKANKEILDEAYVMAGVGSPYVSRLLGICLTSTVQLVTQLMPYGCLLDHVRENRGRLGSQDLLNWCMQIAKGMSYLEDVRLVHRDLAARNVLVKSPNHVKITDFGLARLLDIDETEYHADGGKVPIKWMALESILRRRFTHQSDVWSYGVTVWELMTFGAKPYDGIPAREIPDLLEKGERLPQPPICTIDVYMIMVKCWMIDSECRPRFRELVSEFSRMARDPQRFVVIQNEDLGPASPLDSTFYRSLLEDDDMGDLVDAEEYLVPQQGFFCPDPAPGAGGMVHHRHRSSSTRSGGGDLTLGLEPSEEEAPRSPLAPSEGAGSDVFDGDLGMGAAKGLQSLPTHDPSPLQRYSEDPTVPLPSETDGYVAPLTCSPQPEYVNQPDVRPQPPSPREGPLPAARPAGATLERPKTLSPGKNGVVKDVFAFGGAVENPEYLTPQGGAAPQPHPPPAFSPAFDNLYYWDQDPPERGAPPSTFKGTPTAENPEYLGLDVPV

pIC50 [1] | F ([2]; po, 20 mg/kg) | pIC50 [3] | pIC50 [4] | Papp B→A [5] | pIC50 [6] | solubility [7] | microsomal CLint [8] | pIC50 [9] | pIC50 [10] | pIC50 [11] | bioavailability [2] | Compound
8.47 | 21.1% | 8.74 | 8.66 | 0.6 ×10⁻⁶ cm/s | 6.43 | 2.1 µM (≈ 1.13 µg/mL) | 77 µL/min/mg | 6.67 | 5.97 | < 5.30 |  | CC(C)(C)/C=C(\C#N)C(=O)N1CCC[C@@H](n2nc(-c3ccc(Oc4ccccc4)cc3F)c3c(N)ncnc32)C1 [ATUZABRUTINIB]
7.35 |  | 8.00 | 7.04 | 16.5 ×10⁻⁶ cm/s | 5.52 | 215 µM (≈ 131 µg/mL) | 152 µL/min/mg | 6.83 | < 5.30 | < 5.30 | 17.3% | CC(C)(/C=C(/C#N)C(=O)N1CCC[C@@H]1Cn1nc(-c2ccc(Oc3ccccc3)cc2F)c2c(N)ncnc21)N1CCOCC1
8.92 |  | 9.22 | 9.30 | 13.5 ×10⁻⁶ cm/s | 6.01 | 315 µM (≈ 196 µg/mL) | 30 µL/min/mg | 6.93 | 5.36 | < 5.30 | 20.2% | CN1CCN(C(C)(C)/C=C(\C#N)C(=O)N2CCC[C@@H](n3nc(-c4ccc(Oc5ccccc5)cc4F)c4c(N)ncnc43)C2)CC1
